From patent publication US7109338B2, “1,2-disubstituted 1,4-dihydro-4-oxoquinoline compounds” (priority 1999, dated 2006)
Values after ≈ are worked out from the molar mass of the structure shown.

What was measured:
HRV39 (209) = test: Anti-rhinovirus spectrum (MTT), HRV39; type: cell-based, human rhinovirus; set-up: Anti-Rhinovirus activity, HRV39: unit not given here; conditions: HRV39
[1] = system: coxsackievirus type B4 (CB4,JVB); test: In vitro anti-picornavirus activity (MTT), CB4; type: cell-based; conditions: HeLa cells, MTT method, 37° C.
HRV61 (6669-CV39) = test: Anti-rhinovirus spectrum (MTT), HRV61; type: cell-based, human rhinovirus; set-up: Anti-Rhinovirus activity, HRV61: unit not given here; conditions: HRV61
HRV50(A2#58) = test: Anti-rhinovirus spectrum (MTT), HRV50; type: cell-based, human rhinovirus; set-up: Anti-Rhinovirus activity, HRV50: unit not given here; conditions: HRV50
HRV5 = test: Anti-rhinovirus spectrum (MTT), HRV5; type: cell-based, human rhinovirus; set-up: Anti-Rhinovirus activity, HRV5: unit not given here; conditions: HRV5
[2] = system: echovirus type 11 (Echo 11, Gregory); test: In vitro anti-picornavirus activity (MTT), Echo 11; type: cell-based; conditions: HeLa-S3 cells, MTT method, 37° C.
[3] = system: clinical isolate (89229T); test: microbe, parasite or virus in culture; type: cell-based, human rhinovirus; set-up: Anti-Rhinovirus activity, Clinical isolated strain: unit not given here; conditions: Clinical isolated strain
HRV21 (47) = test: Anti-rhinovirus spectrum (MTT), HRV21; type: cell-based, human rhinovirus; set-up: Anti-Rhinovirus activity, HRV21: unit not given here; conditions: HRV21
HeLa-S3 cells = test: Cytotoxicity (MTT, without virus), HeLa-S3; conditions: HeLa-S3, no virus, incubated for 4 days
HRV 2 (HGP) = test: Anti-rhinovirus activity (MTT), HRV2; type: cell-based, human rhinovirus; set-up: Anti-Rhinovirus activity, HRV2: unit not given here; conditions: for IC50 HRV2: HeLa (Ohio strain) cells, MTT method, 33° C.
HRV10 (204-CV14) = test: Anti-rhinovirus spectrum (MTT), HRV10; type: cell-based, human rhinovirus; set-up: Anti-Rhinovirus activity, HRV10: unit not given here; conditions: HRV10
[4] = system: coxsackievirus type A7 (CA7); test: In vitro anti-picornavirus activity (MTT), CA7; type: cell-based; conditions: HeLa-S3 cells, MTT method, 37° C.
[5] = system: human rhinovirus type 1B (HRV 1B, B632); test: Anti-rhinovirus activity (MTT), HRV1B; type: cell-based; set-up: Anti-Rhinovirus activity, HRV1B: unit not given here; conditions: for IC50 HRV1B: HeLa (Ohio strain) cells, MTT method, 33° C.
HRV31 (41F) = test: Anti-rhinovirus spectrum (MTT), HRV31; type: cell-based, human rhinovirus; set-up: Anti-Rhinovirus activity, HRV31: unit not given here; conditions: HRV31
HRV41 (56110) = test: Anti-rhinovirus spectrum (MTT), HRV41; type: cell-based, human rhinovirus; set-up: Anti-Rhinovirus activity, HRV41: unit not given here; conditions: HRV41
HRV14 (1059) = test: Anti-rhinovirus activity (MTT), HRV14; type: cell-based, human rhinovirus; set-up: Anti-Rhinovirus activity, HRV14: unit not given here; conditions: for IC50 HRV 14: HeLa (Ohio strain) cells, MTT method, 33° C.
HeLa cells = test: Cytotoxicity (MTT, without virus), HeLa; conditions: HeLa, no virus, incubated for 4 days
HRV16 (11757) = test: Anti-rhinovirus spectrum (MTT), HRV16; type: cell-based, human rhinovirus; set-up: Anti-Rhinovirus activity, HRV16: unit not given here; conditions: HRV16
HRV3(FEB) = test: Anti-rhinovirus spectrum (MTT), HRV3; type: cell-based, human rhinovirus; set-up: Anti-Rhinovirus activity, HRV3: unit not given here; conditions: HRV3
[6] = system: Poliovirus type 1 (Polio 1, Sabin); test: microbe, parasite or virus in culture; type: cell-based
HRV8(MRH) = test: Anti-rhinovirus spectrum (MTT), HRV8; type: cell-based, human rhinovirus; set-up: Anti-Rhinovirus activity, HRV8: unit not given here; conditions: HRV8
HRV13 (353) = test: Anti-rhinovirus spectrum (MTT), HRV13; type: cell-based, human rhinovirus; set-up: Anti-Rhinovirus activity, HRV13: unit not given here; conditions: HRV13
HRV29 (5582) = test: Anti-rhinovirus spectrum (MTT), HRV29; type: cell-based, human rhinovirus; set-up: Anti-Rhinovirus activity, HRV29: unit not given here; conditions: HRV29
HRV 89 (41617-Gallo) = test: Anti-rhinovirus activity (MTT), HRV89; type: cell-based, human rhinovirus; set-up: Anti-Rhinovirus activity, HRV89: unit not given here; conditions: for IC50 HRV89: HeLa (Ohio strain) cells, MTT method, 33° C.
HRV32 (363) = test: Anti-rhinovirus spectrum (MTT), HRV32; type: cell-based, human rhinovirus; set-up: Anti-Rhinovirus activity, HRV32: unit not given here; conditions: HRV32
HRV36 (342H) = test: Anti-rhinovirus spectrum (MTT), HRV36; type: cell-based, human rhinovirus; set-up: Anti-Rhinovirus activity, HRV36: unit not given here; conditions: HRV36
HRV1A (E28) = test: Anti-rhinovirus activity (MTT), HRV1A; type: cell-based, human rhinovirus; set-up: Anti-Rhinovirus activity, HRV1A: unit not given here; conditions: for IC50 HRV 1A: HeLa (Ohio strain) cells, MTT method, 33° C.
HeLa (Ohio strain)cells = test: Cytotoxicity (MTT, without virus), HeLa(Ohio); conditions: HeLa(Ohio), no virus, incubated for 4 days
HRV33 (1200) = test: Anti-rhinovirus spectrum (MTT), HRV33; type: cell-based, human rhinovirus; set-up: Anti-Rhinovirus activity, HRV33: unit not given here; conditions: HRV33

Compound | Anti-Rhinovirus activity, HRV39 (HRV39 (209)) | IC50 CB4 [1] | Anti-Rhinovirus activity, HRV61 (HRV61 (6669-CV39)) | Anti-Rhinovirus activity, HRV50 (HRV50(A2#58)) | Anti-Rhinovirus activity, HRV5 (HRV5) | IC50 Echo 11 [2] | Anti-Rhinovirus activity, Clinical isolated strain [3] | Anti-Rhinovirus activity, HRV21 (HRV21 (47)) | Cytotoxicity CC50 HeLa-S3 (HeLa-S3 cells) | Anti-Rhinovirus activity, HRV2 (HRV 2 (HGP)) | IC50 HRV2 (HRV 2 (HGP)) | Anti-Rhinovirus activity, HRV10 (HRV10 (204-CV14)) | IC50 CA7 [4] | Anti-Rhinovirus activity, HRV1B [5] | IC50 HRV1B [5] | Anti-Rhinovirus activity, HRV31 (HRV31 (41F)) | Anti-Rhinovirus activity, HRV41 (HRV41 (56110)) | Anti-Rhinovirus activity, HRV14 (HRV14 (1059)) | IC50 HRV 14 (HRV14 (1059)) | Cytotoxicity CC50 HeLa (HeLa cells) | further results
CCn1c2c(c(=O)c3cc(C(C)C)ccc31)Cc1cc(OC)c(C)cc1-2 [Compound B20] | 0.35 | 0.60 µg/mL (≈ 1.73 µM) | 0.31 | 0.18 | 0.23 | 0.28 µg/mL (≈ 0.806 µM) | 0.49 | 0.14 | >2.5 µg/mL | 0.19 | 0.19 µg/mL (≈ 0.547 µM) | 0.42 | 1.4 µg/mL (≈ 4.03 µM) | 0.23 | 0.23 µg/mL (≈ 0.662 µM) | 0.18 | 0.12 | 0.51 | 0.51 µg/mL (≈ 1.47 µM) | >2.5 µg/mL | Anti-Rhinovirus activity, HRV16 (HRV16 (11757)): 0.44; Anti-Rhinovirus activity, HRV3 (HRV3(FEB)): 0.50; IC50 Polio 1 [6]: 0.40 µg/mL (≈ 1.15 µM); Anti-Rhinovirus activity, HRV8 (HRV8(MRH)): 0.29; Anti-Rhinovirus activity, HRV13 (HRV13 (353)): 0.13; Anti-Rhinovirus activity, HRV29 (HRV29 (5582)): 0.44; Anti-Rhinovirus activity, HRV89 (HRV 89 (41617-Gallo)): 0.18; IC50 HRV89 (HRV 89 (41617-Gallo)): 0.18 µg/mL (≈ 0.518 µM); Anti-Rhinovirus activity, HRV32 (HRV32 (363)): 0.29; Anti-Rhinovirus activity, HRV36 (HRV36 (342H)): 0.20; Anti-Rhinovirus activity, HRV1A (HRV1A (E28)): >2.5; IC50 HRV 1A (HRV1A (E28)): >2.5 µg/mL; Cytotoxicity CC50 HeLa(Ohio) (HeLa (Ohio strain)cells): >2.5 µg/mL; Anti-Rhinovirus activity, HRV33 (HRV33 (1200)): 0.097
CCn1c2c(c(=O)c3cc(C(C)C)ccc31)Cc1cc(OC)c(OC)cc1-2 [Compound B22] | 0.46 | 1.3 µg/mL (≈ 3.58 µM) | 0.34 | 0.17 | 0.43 | 0.39 µg/mL (≈ 1.07 µM) | 0.43 | 0.18 | >10 µg/mL | 0.50 | 0.55 µg/mL (≈ 1.51 µM) | 0.53 | 1.9 µg/mL (≈ 5.23 µM) | 0.44 | 0.44 µg/mL (≈ 1.21 µM) | 0.14 | 0.14 | 0.86 | 0.86 µg/mL (≈ 2.37 µM) | >10 µg/mL | Anti-Rhinovirus activity, HRV16 (HRV16 (11757)): 1.2; Anti-Rhinovirus activity, HRV3 (HRV3(FEB)): 0.97; IC50 Polio 1 [6]: 0.54 µg/mL (≈ 1.49 µM); Anti-Rhinovirus activity, HRV8 (HRV8(MRH)): 0.46; Anti-Rhinovirus activity, HRV13 (HRV13 (353)): 0.13; Anti-Rhinovirus activity, HRV29 (HRV29 (5582)): 0.56; Anti-Rhinovirus activity, HRV89 (HRV 89 (41617-Gallo)): 0.36; IC50 HRV89 (HRV 89 (41617-Gallo)): 0.36 µg/mL (≈ 0.99 µM); Anti-Rhinovirus activity, HRV32 (HRV32 (363)): 0.19; Anti-Rhinovirus activity, HRV36 (HRV36 (342H)): 0.25; Anti-Rhinovirus activity, HRV1A (HRV1A (E28)): >5.9; IC50 HRV 1A (HRV1A (E28)): >5.9 µg/mL; Cytotoxicity CC50 HeLa(Ohio) (HeLa (Ohio strain)cells): >10 µg/mL; Anti-Rhinovirus activity, HRV33 (HRV33 (1200)): 0.16
